Read-outs that look alike come from different tables or passages of the source. *1 amine or outer side, *2 acyl side, *3 side chain or, on linkers, in order; H or OH if unused. Where a SMILES comes first, the peptide text is derived from it. Bridges are numbered along the chain shown (N, C = ends). [ ]: non-standard residue; d: D form. The star is where a group is joined. pTerphenylCO(4''-OnC5H11) = CCCCCOc1ccc(-c2ccc(-c3ccc(C(=O)*)cc3)cc2)cc1; Orn(4R-OH,5R-OH) = O=C([C@H](C[C@@H](O)[C@@H](O)N[*:3])N[*:1])[*:2]; hTyr(3S-OH,4S-OH) = N[C@H](C(=O)O)[C@H](O)[C@@H](O)c1ccc(O)cc1; Pro(3S-OH,4S-Me) = C[C@H]1CN[C@H](C(=O)O)[C@H]1O; Hyp = O=C(O)[C@@H]1C[C@@H](O)CN1
Test system: C. elegans
Test: microbe, parasite or virus in culture
Details: Caenorhabditis elegans
[1] = 0 h, read-out: Percentage of motility inhibition 0 h, Table S2, C. elegans SS assay, 110 μM, 0 h, averages of 4 data points
[2] = 24 h, read-out: Percentage of motility inhibition 24 h, Table S2, C. elegans SS assay, 110 μM, 24 h, averages of 4 data points
[3] = 0 h, read-out: Percentage of motility inhibition 0 h
[4] = 24 h, read-out: Percentage of motility inhibition 24 h

SMILES	inhibition at 110 µM [1] [%]	inhibition at 110 µM [2] [%]	inhibition at 110 µM [3] [%]	inhibition at 110 µM [4] [%]
C=C1CC[C@@H]2[C@](C)(CO)[C@H](O)CC[C@@]2(C)[C@@H]1CCC1=CCOC1=O [14-Deoxyandrographolide]	1	28	–	–
CC(C)=CCC[C@@H](C)CC=O [(R)-(+)-Citronellal]	0	8	–	–
CC[C@@]1(O)C(=O)OCc2c1cc1n(c2=O)Cc2cc3cc(O)ccc3nc2-1 [(S)‐10‐Hydroxycamptothecin]	0	0	–	–
Oc1cc(O)c2c(c1)O[C@@H](c1ccc(O)c(O)c1)[C@H](O)C2 [(‐)‐Catechin]	8	9	–	–
Oc1cc(O)c2c(c1)O[C@H](c1ccc(O)c(O)c1)[C@H](O)C2 [(‐)‐Epicatechin]	1	23	–	–
Oc1cc(O)c2c(c1)O[C@@H](c1cc(O)c(O)c(O)c1)[C@H](O)C2 [(‐)‐Gallocatechin]	–	–	43	5
C/C=C1\[C@H]2C=C(C)C[C@]1(N)c1ccc(=O)[nH]c1C2 [(‐)‐Huperzine A]	0	4	–	–
O=C1C=C2C=C[C@@H]3C[C@@]2(O1)[C@H]1CCCCN31 [(‐)‐Securinine]	0	12	–	–
COc1c(-c2ccc3cc(NS(C)(=O)=O)ccc3c2)cc(-n2ccc(=O)[nH]c2=O)cc1C(C)(C)C [ABT‐333]	40	0	–	–
OB1OCc2cc(F)ccc21 [AN‐2690]	0	12	–	–
Nc1nc(NC2CC2)c2ncn([C@H]3C=C[C@@H](CO)C3)c2n1 [Abacavir]	3	2	–	–
CC1=CC(=O)CC(C)(C)[C@@]1(O)/C=C/C(C)=C\C(=O)O [Abscisic acid]	0	11	–	–
COc1ccc(-c2cc(=O)c3c(O)cc(O)cc3o2)cc1 [Acacetin]	9	2	–	–
Cn1c(=O)c2c(ncn2CC(=O)O)n(C)c1=O [Acefylline]	0	1	–	–
CC(=O)OCC1=CO[C@@H](OC(=O)CC(C)C)[C@H]2C1=C[C@H](OC(=O)CC(C)(C)OC(C)=O)[C@]21CO1 [Acevaltrate]	–	–	7	21
CCN1C[C@]2(COC)[C@H](O)C[C@H](OC)[C@]34C1[C@H]([C@H](OC)[C@H]23)[C@]1(O)[C@H]2[C@@H](O)[C@](O)(C[C@H]24)[C@@H](OC)[C@@H]1O [Aconine]	10	0	–	–
Nc1nc2c(ncn2COCCO)c(=O)[nH]1 [Acyclovir]	17	12	–	–
CC(C)(C)C(=O)OCOP(=O)(COCCn1cnc2c(N)ncnc21)OCOC(=O)C(C)(C)C [Adefovir dipivoxil]	28	14	–	–
Nc1ncnc2[nH]cnc12 [Adenine]	–	–	0	3
Nc1ncnc2c1ncn2[C@@H]1O[C@H](CO)[C@@H](O)[C@H]1O [Adenosine]	0	9	–	–
O=C(OCC1=C[C@@H](O)[C@@H]2C=CO[C@@H](O[C@@H]3O[C@H](CO)[C@@H](O)[C@H](O)[C@H]3O)[C@H]12)c1ccc(O)cc1 [Agnuside]	2	15	–	–
CCCSc1ccc2nc(NC(=O)OC)[nH]c2c1 [Albendazole]	–	–	17	6
CC(C)C1=C[C@H]2[C@@H](CC[C@]2(C)O)[C@](C)(O)CC1 [Alismoxide]	2	0	–	–
C[C@H](C[C@H](O)[C@@H](O)C(C)(C)O)C1=C2C[C@H](O)[C@H]3[C@@]4(C)CCC(=O)C(C)(C)[C@@H]4CC[C@]3(C)[C@@]2(C)CC1 [Alisol A]	3	2	–	–
C[C@H](C[C@H](O)[C@H]1OC1(C)C)C1=C2C[C@H](O)[C@H]3[C@@]4(C)CCC(=O)C(C)(C)[C@@H]4CC[C@]3(C)[C@@]2(C)CC1 [Alisol B]	–	–	3	10

SMILES	inhibition at 110 µM [1] [%]	inhibition at 110 µM [2] [%]	inhibition at 110 µM [3] [%]	inhibition at 110 µM [4] [%]
NC(=O)NC1NC(=O)NC1=O (centres unmarked) [Allantoin]	0	13	–	–
COc1ccc2c(c1OC)CN(C)CCc1cc3c(cc1C(=O)C2)OCO3 [Allocryptopine]	11	18	–	–
O=c1cc(-c2ccc(O)c(-c3c(O)cc(O)c4c(=O)cc(-c5ccc(O)cc5)oc34)c2)oc2cc(O)cc(O)c12 [Amentoflavone]	0	0	–	–
C[C@@H]1[C@H](O)[C@@H](C)/C=C/C=C/C=C/C=C/C=C/C=C/C=C/[C@H](O[C@@H]2O[C@H](C)[C@@H](O)[C@H](N)[C@@H]2O)C[C@@H]2O[C@](O)(C[C@@H](O)C[C@@H](O)[C@H](O)CC[C@@H](O)C[C@@H](O)CC(=O)O[C@H]1C)C[C@H](O)[C@H]2C(=O)O [Amphotericin B]	2	29	–	–
CC(C)CN(C[C@@H](O)[C@H](Cc1ccccc1)NC(=O)O[C@H]1CCOC1)S(=O)(=O)c1ccc(N)cc1 [Amprenavir]	41	34	–	–
N#C[C@H](O[C@@H]1O[C@H](CO[C@@H]2O[C@H](CO)[C@@H](O)[C@H](O)[C@H]2O)[C@@H](O)[C@H](O)[C@H]1O)c1ccccc1 [Amygdalin]	13	0	–	–
c1cncc([C@@H]2CCCCN2)c1 [Anabasine]	0	0	–	–
O=c1cccc2n1C[C@H]1C[C@@H]2CN2CCCC[C@H]12 [Anagyrine]	14	6	–	–
C=C1CC[C@@H]2[C@](C)(CO)CCC[C@@]2(C)[C@@H]1CCC1=CCOC1=O [Andrograpanin]	3	20	–	–
CCCCCOc1ccc(-c2ccc(-c3ccc(C(=O)N[C@H]4C[C@@H](O)[C@@H](O)NC(=O)[C@@H]5[C@@H](O)[C@@H](C)CN5C(=O)[C@H]([C@@H](C)O)NC(=O)[C@H]([C@H](O)[C@@H](O)c5ccc(O)cc5)NC(=O)[C@@H]5C[C@@H](O)CN5C(=O)[C@H]([C@@H](C)O)NC4=O)cc3)cc2)cc1 [Anidulafungin] ({pTerphenylCO(4''-OnC5H11)}-[Orn(4R-OH,5R-OH)]T[Hyp][hTyr(3S-OH,4S-OH)]T[Pro(3S-OH,4S-Me)]; lactam 1-C)	54	61	–	–
C[C@@H]1C[C@@H](O)[C@@]2(O)[C@@]13C[C@@H](OC(=O)[C@H]3O)[C@](C)(O)[C@@]21COC1=O [Anisatin]	0	20	–	–
O=c1cc(-c2ccc(O)cc2)oc2cc(O)cc(O)c12 [Apigenin]	12	3	–	–
O=c1cc(-c2ccc(O)cc2)oc2cc(O[C@@H]3O[C@H](CO)[C@@H](O)[C@H](O)[C@H]3O[C@@H]3OC[C@](O)(CO)[C@H]3O)cc(O)c12 [Apiin]	24	0	–	–
Cn1c(Cc2ccccc2)nc(=O)c2ccccc21 [Arborine]	0	4	–	–
OC[C@H]1O[C@@H](Oc2ccc(O)cc2)[C@H](O)[C@@H](O)[C@@H]1O [Arbutin]	0	1	–	–
C[C@@H]1O[C@@H](O[C@H]2[C@H](O[C@H]3CO[C@@H](O[C@H]4CC[C@]5(C)[C@H]6CC[C@]78OC[C@@]9(CC[C@](C)(C=O)C[C@H]97)[C@H](O)C[C@@]8(C)[C@]6(C)CC[C@H]5C4(C)C)[C@H](O[C@@H]4O[C@H](CO)[C@@H](O)[C@H](O)[C@H]4O)[C@H]3O)O[C@H](CO)[C@@H](O)[C@@H]2O)[C@H](O)[C@H](O)[C@H]1O [Ardisiacrispin B]	16	0	–	–
CC1(C)CC[C@]2(C(=O)O)CC[C@]3(C)C(=CC[C@@H]4[C@@]5(C)C[C@@H](O)[C@H](O)[C@@](C)(CO)[C@@H]5CC[C@]43C)[C@@H]2[C@@H]1O [Arjungenin]	0	36	–	–
C=C1C(=O)O[C@@]23[C@H]1CC[C@@H](C)[C@@H]2CC[C@@]1(C)O[C@@H]31 [Arteannuin B]	13	11	–	–
C=C1C(=O)O[C@@H]2O[C@@]3(C)CC[C@H]4[C@H](C)CC[C@@H]1[C@@]24OO3 [Artemisitene]	0	9	–	–
CC[C@@H]1/C=C(\C)C[C@H](C)C[C@H](OC)[C@H]2O[C@@](O)(C(=O)C(=O)N3CCCC[C@H]3C(=O)O[C@H](/C(C)=C/[C@@H]3CC[C@@H](O)[C@H](OC)C3)[C@H](C)[C@@H](O)CC1=O)[C@H](C)C[C@@H]2OC [Ascomycin]	6	0	–	–
C[C@H]1[C@H](C)CC[C@]2(C(=O)O)CC[C@]3(C)C(=CC[C@@H]4[C@@]5(C)C[C@@H](O)[C@H](O)[C@@](C)(CO)[C@@H]5CC[C@]43C)[C@H]12 [Asiatic acid]	41	55	–	–
C[C@@H]1O[C@@H](O[C@H]2[C@H](O)[C@@H](O)[C@H](OC[C@H]3O[C@@H](OC(=O)[C@]45CCC(C)(C)C[C@H]4C4=CC[C@@H]6[C@@]7(C)C[C@@H](O)[C@H](O)[C@@](C)(CO)[C@@H]7[C@H](O)C[C@@]6(C)[C@]4(C)CC5)[C@H](O)[C@@H](O)[C@@H]3O)O[C@@H]2CO)[C@H](O)[C@H](O)[C@H]1O [Asiaticoside B]	0	5	–	–
CC(=O)OCC1=C[C@@H]2OC(=O)C3=CO[C@@H](O[C@@H]4O[C@H](CO)[C@@H](O)[C@H](O)[C@H]4O)[C@H]1[C@@H]32 [Asperuloside]	0	5	–	–
CC(=O)OCC1=C[C@H](O)[C@@H]2C(C(=O)O)=CO[C@@H](O[C@@H]3O[C@H](CO)[C@@H](O)[C@H](O)[C@H]3O)[C@H]12 [Asperulosidic Acid]	2	0	–	–

— publication PMC11855827, “High-Throughput Screening of Five Compound Libraries for Anthelmintic Activity and Toxicity Leads to the Discovery of Two Flavonoid Compounds” (International Journal of Molecular Sciences, 2025)
